Values quoted from earlier work in patent US10611818B2, “MHC multimers in tuberculosis diagnostics, vaccine and therapeutics” (priority 2007, dated 2020).

Test system: T2 cells
Settings: CD8 T-cell clones 8, 9, 10, 11 and 12

GLQHWVPEL [BA4697-105, irrelevant peptide used to load T2 target cells]
lysis of T2 cells pulsed with peptide: without killing
